Counter-ions that a name gives are not always drawn.
Assays:
PQQ/Heme-ALDH (4) = assay: Substrate specificity of PQQ/Heme-ALDH (4); assay type: biochemical, Pseudogluconobacter saccharoketogenes; conditions: McIlvaine buffer pH 8.0, relative to sodium D-gluconate set to be 100
Protocol: (§1) • Substrate solution: 0.2 M sodium glyoxylate solution (adjusted to pH 8.0 with sodium hydroxide) • Buffer: McIlvaine buffer (pH 8.0)
(§2) Other reagents and preparation methods thereof and measurement procedures are in accordance with the measurement of ADH (1) activity.
(§3) Each substrate (D-glucose, sodium D-gluconate, sodium D-glucuronate, intermediate A, sodium salt of intermediate B, sodium glyoxylate) was dissolved in McIlvaine buffer (pH 8.0) and the activity of ALDH was measured as described in Example 1 to study the substrate specificity of PQQ/Heme-ALDH (4). The enzyme activity for each substrate is expressed as a relative activity to the activity measured with sodium D-gluconate as a substrate that was set to be 100.

PQQ-ALDH (2) = assay: Substrate specificity of PQQ-ALDH (2); assay type: biochemical, Pseudogluconobacter saccharoketogenes; conditions: McIlvaine buffer pH 8.0, relative to sodium salt of intermediate B set to be 100
Protocol: as §1, §2
Each substrate (D-glucose, sodium D-gluconate, sodium D-glucuronate, intermediate A, sodium salt of intermediate B, sodium glyoxylate) was dissolved in McIlvaine buffer (pH 8.0) and the activity of ALDH was measured as described in Example 1 to study the substrate specificity of PQQ-ALDH (2). The enzyme activity for each substrate is expressed as a relative activity to the activity measured with the sodium salt of intermediate B as a substrate that was set to be 100.

PQQ-ADH (1) = assay: Substrate specificity of PQQ-ADH (1); assay type: biochemical, Pseudogluconobacter saccharoketogenes; conditions: McIlvaine buffer pH 5.0, relative to D-glucose set to be 100
Protocol: (§4) The culture solution (1 mL) was centrifuged at 10,000 rpm for 5 minutes to recover the cells. The cells were resuspended in 1 mL of 0.9% saline. The cell suspension was appropriately diluted in 0.9% saline to obtain a crude enzyme solution. In a test tube 250 μL of the buffer, 500 μL of the substrate solution and 50 μL of the crude enzyme solution were placed and preliminarily heated to 30° C. for 5 minutes.
(§5) To the mixture 200 μL of the potassium ferricyanide solution was added to initiate oxidation reaction. After 10 minutes, 500 μL of the reaction termination solution was added to terminate the reaction. The reaction solution was added with 3.5 mL of pure water, left to stand in the dark at room temperature for 20 minutes and measured for the absorbance at 660 nm. For the control, pure water was used instead of the substrate solution. In this measurement, 1 U is defined as the amount of enzyme required to oxidize 1 μM of the substrate per minute.
as §3, with “intermediate B)” for “intermediate B, sodium glyoxylate)”, “(pH 5.0)” for “(pH 8.0)”, “of ADH” for “of ALDH”, “of PQQ-ADH (1).” for “of PQQ/Heme-ALDH (4).”, “with D-glucose” for “with sodium D-gluconate”

β-glucuronidase = target: T1, β-glucuronidase (Homo sapiens, UniProt P08236); conditions: background statement; cited from earlier work
T1 sequence (P08236 23-651): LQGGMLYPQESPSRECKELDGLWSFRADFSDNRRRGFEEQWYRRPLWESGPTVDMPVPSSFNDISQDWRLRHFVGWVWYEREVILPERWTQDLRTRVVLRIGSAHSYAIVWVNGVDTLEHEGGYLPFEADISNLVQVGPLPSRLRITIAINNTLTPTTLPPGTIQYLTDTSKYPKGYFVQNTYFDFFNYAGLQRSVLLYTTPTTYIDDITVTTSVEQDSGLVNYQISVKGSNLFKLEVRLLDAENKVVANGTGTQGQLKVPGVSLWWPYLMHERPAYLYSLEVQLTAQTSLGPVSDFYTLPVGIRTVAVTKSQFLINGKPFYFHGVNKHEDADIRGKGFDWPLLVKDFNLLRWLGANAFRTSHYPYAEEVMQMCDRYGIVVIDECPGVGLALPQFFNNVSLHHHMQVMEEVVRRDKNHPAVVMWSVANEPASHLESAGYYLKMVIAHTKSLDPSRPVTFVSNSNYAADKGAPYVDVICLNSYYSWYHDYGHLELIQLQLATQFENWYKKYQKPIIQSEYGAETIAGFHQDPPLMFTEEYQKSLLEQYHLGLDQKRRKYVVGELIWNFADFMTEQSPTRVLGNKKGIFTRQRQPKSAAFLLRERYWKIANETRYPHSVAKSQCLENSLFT

ADH (1) = assay: Measurement of activity of ADH (1) (potassium ferricyanide method, glucose substrate, pH 5.0); assay type: biochemical, Pseudogluconobacter saccharoketogenes; conditions: ADH (1) activity
Protocol: 1) Measurement of Activity of ADH (1)
• Substrate solution: 0.2 M glucose solution • Buffer: McIlvaine buffer (pH 5.0) • Potassium ferricyanide solution: 0.1 M potassium ferricyanide solution • Reaction termination solution: 5 g of ferric sulphate and 95 mL of phosphoric acid were dissolved in pure water and adjusted to 1 L. <Measurement Procedures>
as §4, §5

ALDH (2 and 3) = assay: Measurement of activity of ALDH (2 and 3) (potassium ferricyanide method, sodium glyoxylate substrate, pH 8.0); assay type: biochemical, Pseudogluconobacter saccharoketogenes
Protocol: as §4, §5
2) Measurement of Activity of ALDH (2 and 3)
as §1, §2

## O=CC(=O)[O-].[Na+] [sodium glyoxylate, reference compound]
PQQ/Heme-ALDH (4); 0.2M substrate
  Relative activity: 20,260%
PQQ-ALDH (2); 0.2M substrate
  Relative activity: 3,050%

## O=C[C@@H](O)[C@@H](O)[C@H](O)[C@@H](O)C=O [intermediate A, D-glucaraldehyde]
PQQ-ADH (1); 0.02M substrate
  Relative activity: 59.1%
PQQ/Heme-ALDH (4); 0.02M substrate
  Relative activity: 11.6%
PQQ-ALDH (2); 0.02M substrate
  Relative activity: 476%

## O=C[C@H](O)[C@@H](O)[C@H](O)[C@H](O)CO [D-glucose]
PQQ-ADH (1); 0.2M substrate
  Relative activity: 100%
PQQ/Heme-ALDH (4); 0.2M substrate
  Relative activity: 35.1%
PQQ-ALDH (2); 0.2M substrate
  Relative activity: 11.8%

## O=C[C@H](O)[C@@H](O)[C@H](O)[C@H](O)C(=O)[O-].[Na+] [sodium D-glucuronate]
PQQ-ADH (1); 0.2M substrate
  Relative activity: <1%
PQQ/Heme-ALDH (4); 0.2M substrate
  Relative activity: 2.9%
PQQ-ALDH (2); 0.2M substrate
  Relative activity: 18.6%

## O=C([O-])[C@H](O)[C@@H](O)[C@H](O)[C@H](O)CO.[Na+] [sodium D-gluconate]
PQQ-ADH (1); 0.2M substrate
  Relative activity: 88.6%
PQQ/Heme-ALDH (4); 0.2M substrate
  Relative activity: 100%
PQQ-ALDH (2); 0.2M substrate
  Relative activity: <1%

## O=C[C@@H](O)[C@@H](O)[C@H](O)[C@@H](O)C(=O)O [sodium salt of intermediate B, L-guluronic acid]
PQQ-ADH (1); 0.2M substrate
  Relative activity: 2.7%
PQQ/Heme-ALDH (4); 0.2M substrate
  Relative activity: 21.1%
PQQ-ALDH (2); 0.2M substrate
  Relative activity: 100%

## O=C(O)[C@@H](O)[C@@H](O)[C@H](O)[C@@H](O)C(=O)O [D-glucaric acid]
β-glucuronidase
  inhibition of β-glucuronidase: strongly inhibit

B1: PQQ-ADH (1): specific pyrroloquinoline quinone-dependent alcohol dehydrogenase, amino acid sequence of SEQ ID NO: 1 (protein)
chain: MLKQSLLASGLAALCVAAMGSLSLAAETTSERLLNAGSEAENGNWLMVHRTYDSHRFSPLSEINKDTIKDLGLASVTILDNASRGGRYASARNEGTPLVEDGFMYLQSGWSVVYKLDVRDGKTAKVVWKYDPEVDRQWVSDATCCGAENRGIGLWNDDVVALTMDGRVMSINKDTGELNWEKQRADKARAESFTGAPLIIGDTAVYGPAGGEYGIRGWLEAIDLKTGDVAWRTYTVPGPGEPGNDTWQGNAWETGGASIWQTGSYDPDTGMTYWGTGNPAPQIDAEYRPGDNLYASSLLALDAKDGALKWHFQFTPNDPYDYDEIGDNQLLDVSVDGKPSKMVVRAARNGFMYGFNRLDGAMTYAKQYVEDLTWTTGIDPKTGKPLEYDPKAQLQKYVAGTVGSREGNPGIYCPTLGGGKNWQPAAYSPNTKLLYVTSAEGCSAYVPEAAPNPTTTGGEYDVVKAQREWNGRLPAPEGTKLPDVFNGGSVKAIDPLTGETKAKVLVPRRLNGMLATGGDLVWSSGTDGNLYAYDANTLETVWTFNVGTALGGPPMSYSVDGKQYVAVLAGAAASAADKKVAPQSEFFVPADALYIFALK
modifications: Pseudogluconobacter
ADH (1); enzyme purified from K591s strain
  Specific activity: 36.0 U/mg
ADH (1); enzyme purified from Rh47-3 strain
  Specific activity: 38.6 U/mg

B2: PQQ/Heme-ALDH (4): ALDH (3) enzyme with the highest activity, contains PQQ and Heme c, SEQ ID NO: 3 (protein)
chain: MTIRLKTLLAFTAITTLALPAFAQDAAAPAAPAARTYKPVTNDMILNPPAEEWISWRRTVDNQGYSPLDLINKDIVKNLELAWAWPMAADGQQEAAPLVHDGIMFLSTNQNIIQALDAKTGDLIWEYRHVLPELPTSWGYQLNQARRQKNSIALYDDKVIVATADAKLVALDAATGKVAWETQVYDTQKGYSYTVGPLIVGDTAVYGPAGGEYGIRGWLEFIAAHDAKTGKEIWRFNTIDDPKNPEQEASWNGVPPENRWGGTPWTTGSYDPRTNTTFWGVGMPGPYSQLIRGSGEGPVLYTNNTLALDADTGERKWNFSHLPADNWDLDSPFERILVDEGQGDAAKHLLVTVPGKDGIAFGLDRDTGKYLWSRDTVYQNVVKNIDAEGKVTLNSDLVPTAVNQEVFVCTSVSGGKLWMTGAYSPKTQTYYVPLAEACNTVTPTVTEFTAGNAVGATKFGPRVLPPNITNGGVVEAINVADGARKWRLEQRPTFSSSLLAKAKVLVPRRLNGMLATGGDLETGQVVWKTRLNAPIGGYPMTYEIDGEQYLAVPTGFSAQASSSASMFPEIPVPSGSGNSLFVFKLRNDTQTASK
modifications: PQQ and heme c cofactors; Pseudogluconobacter
ALDH (2 and 3); enzyme purified from K591s strain, ALDH (3) activity
  Specific activity: 27,661 U/mg

B3: PQQ-ALDH (2): specific pyrroloquinoline quinone-dependent aldehyde dehydrogenase, amino acid sequence of SEQ ID NO: 2 (protein)
chain: MYRKGSVLTVSALVLGLCTSSVWAQQAPTTNALDNLTPVTSVWAQQAPTTNALDNLTPVTGWGYSPLDQINKDNVDKLQLVWSWGLSPGGTTQETPLVHDGVMFVQNSSHLIQALDAGTGELLWQYQYSLPTGVNPAGQRSKALYGDNLIFATRDAHIVAVNAKTGKLAWDQQVADYKKGWGYSSGPLVADGTIIQGMTNCGNGEPGGCFITGHDPATGKELWRLNTIASGDTPEGNSWNGLPQMSRYGASAWITGSYDPDQNIVFAGVGQPYPWPAVLNGLLPKSTDSKYTNNAAYTDSTLAIEPKTGALKWYHQYLATDTLDLDYVYERLLVDLPVKGEATKQVITAGKLAIIESLDRTSGKWLWAHETVPQNVVSAIDPVTGEKTINPDVIPQVGKTTVNCPADPGGRAWQATSFSPKTQMMYMPTVEFCSNTDVNPLDPGQVYTGGGLATFNRVPRPDSDGNIGQVRAINLADQTDAWMYRQHAPVTTSTLPTGGGLVFVGTLDRKLIAFDDTTGKILWTSPKLDNAIESFPVTFTAGDKQYVAVVTNWSSGLGRLKSITPDVQLPQDNPHTVYVFALPDTK
modifications: Pseudogluconobacter
ALDH (2 and 3); enzyme purified from Rh47-3 strain, ALDH (2) activity
  Specific activity: 8,928 U/mg
